From PubChem BioAssay (NCI) come the findings set out here.

Among the test systems are A498 renal; COLO 205 colon; DU-145 prostate; HCC-2998 colon; KM12 colon; NCI-H226 lung; NCI-H522 lung; OVCAR-3 ovarian; T-47D breast; U251 CNS.
What all share (experiment): inhibition of tumour cell growth, NCI panel, 48 h

SMILES strings stand for the structures.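 Grown in 96-well plates, cells were treated for 48 hours with each compound at five concentrations. Insufficient inhibition: endpoint recorded as highest concentration tested. GI50 = concentration required for 50% inhibition of growth. At the TGI there is no net growth.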 Where only a bound is given, the exact number is not on record here.

Turning to `Cc1ccc2c(c1)OC1Nc3ccccc3C1=C2O` (stereo not given), the TGI in the test on A498 renal is 45.5 µM; with COLO 205 colon it was 29.2 µM; in the test on DU-145 prostate, over 100 µM; in the test with HCC-2998 colon it was 33.9 µM; in the test with KM12 colon it was over 100 µM; with NCI-H226 lung, 89.1 µM. Further, the TGI in the test with NCI-H522 lung was over 100 µM; with OVCAR-3 ovarian, 21.1 µM; in the test on T-47D breast, 85 µM; in the test with U251 CNS, 57.5 µM.

Regarding `O=C(O)c1ccccc1/C=N\NC1=NCCCCN1`, the TGI in the test with A498 renal, with COLO 205 colon, in the test on DU-145 prostate, with HCC-2998 colon, in the test on KM12 colon and in the test with NCI-H226 lung was over 100 µM in each case. The TGI with NCI-H522 lung, in the test on OVCAR-3 ovarian, with T-47D breast and with U251 CNS was over 100 µM each time.

`COC1/C=C/C(C)C(C(C)C(OC)C(C)CCC(=O)C(C)C(CCC(=O)O)OC)OC(=O)/C=C/C=C(\C)CC(OC)CC2=CC(=O)O[C@@H](C(C)C(OC)CC(OC)/C=C/C(C)C(OC)C1)[C@H]2O` (stereo not given in full): the TGI in the test with A498 renal is 0.343 µM; in the test on COLO 205 colon, over 5 µM; in the test with DU-145 prostate, over 5 µM; in the test on HCC-2998 colon, over 5 µM; in the test on KM12 colon it was over 5 µM; with NCI-H226 lung, 2.13 µM. The TGI in the test with NCI-H522 lung is over 5 µM; in the test with OVCAR-3 ovarian it was 1.72 µM; in the test on T-47D breast, over 5 µM; in the test on U251 CNS, 1.39 µM.

For `COc1cccc(-c2nc3sccn3c2-c2ccnc(NCCNC(=O)Nc3cccc(C(F)(F)F)c3)n2)c1`, the GI50 in the test on A498 renal was 2.44 µM; with COLO 205 colon, 5.37 µM; in the test with DU-145 prostate, 5.13 µM; with HCC-2998 colon it was 3.75 µM; in the test with KM12 colon, 3.36 µM; in the test with NCI-H226 lung, 4.58 µM. The GI50 with NCI-H522 lung is 2.67 µM; in the test with OVCAR-3 ovarian it was 4.22 µM; in the test with T-47D breast, 3.77 µM; with U251 CNS, 3.95 µM. The TGI in the test on A498 renal was 17.5 µM; with COLO 205 colon, 19.2 µM; in the test on DU-145 prostate, 95.5 µM; in the test on HCC-2998 colon it was 18.7 µM; in the test with KM12 colon it was 10.1 µM; in the test with NCI-H226 lung, 68.6 µM. Moreover, the TGI came to 8.51 µM in the test on NCI-H522 lung, 20.3 µM with OVCAR-3 ovarian, 13.8 µM in the test with T-47D breast and 19.8 µM in the test with U251 CNS.

In the case of `O=C1OS2(OCc3cccc4cccc2c34)c2ccccc21` (stereo not given), the TGI with A498 renal, with COLO 205 colon, in the test on DU-145 prostate, in the test on HCC-2998 colon, with KM12 colon and in the test with NCI-H226 lung was over 100 µM throughout. The TGI in the test on NCI-H522 lung, in the test with OVCAR-3 ovarian, in the test with T-47D breast and with U251 CNS was over 100 µM each time.

On to `CCOC(=O)c1sc2c(c1OC(=O)c1ccccc1)c(=O)n(-c1ccccc1)c(=S)n2-c1ccccc1`, for which the TGI in the test on A498 renal is 31 µM; in the test on COLO 205 colon, over 100 µM; in the test on DU-145 prostate, over 100 µM; in the test on HCC-2998 colon, 74.5 µM; in the test on KM12 colon, over 100 µM; with NCI-H226 lung, over 100 µM. Further, the TGI was 56.3 µM in the test with NCI-H522 lung, 95.6 µM in the test on OVCAR-3 ovarian, over 100 µM in the test with T-47D breast and 46.5 µM in the test with U251 CNS.

`CC1(C)[C@@H]2C[C@H]1c1cnc(-c3ccccn3)cc1C2[C@@H]1c2cc(-c3ccccn3)ncc2[C@@H]2C[C@H]1C2(C)C` (stereo not given in full): the TGI in the test with A498 renal, in the test on COLO 205 colon, in the test with DU-145 prostate, in the test on HCC-2998 colon, in the test on KM12 colon and in the test with NCI-H226 lung was over 100 µM in each case. Further, the TGI with NCI-H522 lung, with OVCAR-3 ovarian, with T-47D breast and in the test on U251 CNS was over 100 µM in each case.
